Measured values taken from patent publication US8450333B2, “Molecules for regulating cell death” (The Regents of The University of California, priority 2003, dated 2013).

Experiments:
wild type yeast cells = test: Mitochondrial morphology in yeast (secondary screen, mitochondrial targeted GFP); type: cell-based, S. cerevisiae; settings: for % fragmented / % nets / % reticular: Structure Function Analysis of Compound A1, yeast; for % net-like structures: yeast, each at a concentration of 50 μM
Excerpt: Secondary screens: Compounds identified in the primary growth assay-based screens outlined above are screened secondarily by examining their effects on mitochondrial morphology. We use the steady state structure of mitochondria as an indicator of the relative rates of mitochondrial fission and fusion in cells. […] Mitochondria are visualized using a mitochondrial targeted GFP that is efficiently targeted to both wild type and respiratory deficient mitochondria (Tieu et al., 2000 The Journal of Cell Biology 151, 353-365.).
All compounds identified in the primary growth assay-based screens outlined above were screened secondarily by examining their effects on mitochondrial morphology in yeast. From previous work, we know that the steady state structure of mitochondria is an indicator of the relative rates of mitochondrial fission and fusion in cells (FIG. 7). Specifically, net-like structures indicate a block in fission, and fragmented mitochondrial structures indicate a block in fusion. […] In this secondary assay, small molecules were judged to be a hit if they produced a mutant phenotype in greater than 5% of the cell population.
To determine what structural features are important for the effects of mfisi-1 on mitochondrial fission, we identified structurally related molecules using a chemoinformatics approach. We utilized web-based ChemNavigator to search available public and commercial compound databases for small molecules that uniquely represented key structural features of mfisi-1. We tested a total of 15 small molecules related to mfisi-1 for their effects on mitochondrial morphology in yeast, each at a concentration of 50 μM (Table 3).

[1] = tested on: actin cytoskeleton and peripheral ER network; test: Actin cytoskeleton and peripheral ER network in yeast; type: cell-based; settings: added after mfisi-1 treatment
Excerpt: These structures are routinely examined in yeast mitochondrial morphology mutants as a test for the specificity of the mitochondrial phenotype.

mammalian COS cells = test: Mitochondrial fragmentation induced by staurosporine (STS) in COS cells; type: cell-based; settings: COS cells stimulated with STS; mfisi-1 at 50 μM; n=100
Excerpt: As indicated above, we observed that mfisi-1 causes changes in mitochondrial morphology in mammalian cells that are consistent with a block in mitochondrial fission. Thus, we examined the effects of mfisi-1 on mitochondrial fragmentation caused by the intrinsic apoptotic stimulus staurosporine (STS) in mammalian COS cells. […] These observations indicate that mfisi-1 retards apoptosis-stimulated Drp1-dependent mitochondrial fission.

| Structure (SMILES) | % fragmented (wild type yeast cells) | % nets (wild type yeast cells) | % reticular (wild type yeast cells) | % net-like structures (wild type yeast cells) | further results |
| --- | --- | --- | --- | --- | --- |
| O=c1c2ccccc2nc(S)n1Cc1ccccc1 | 6% | 5% | 89% |  |  |
| O=c1c2ccccc2nc2n1CCS2 [2,3-Digydor-thiazolo[2,3-b]quinazolin-4-one] |  |  |  | 0% |  |
| C=CCSc1nc2ccccc2c(=O)n1Cc1ccccc1 [2-Allylsulfanyl-3-benzyl-3H-quinazolin-4-one] |  |  |  | 0% |  |
| C=CCSc1nc2ccccc2c(=O)n1-c1cccc(C)c1 [2-Allylsulfanyl-3-m-tolyl-3H-quinazolin-4-one] |  |  |  | 1% |  |
| C=CCSc1nc2ccccc2c(=O)n1-c1ccccc1OC [2-Allylsulfanyl-(2-methoxy-phenyl)-3H-quinazolin-4-one] |  |  |  | 0% |  |
| CCSc1nc2ccccc2c(=O)n1-c1cccc(C)c1 [2-Ethylsulfanyl-3-m-tolyl-3H-quinazolin-4-one] |  |  |  | 2% |  |
| COc1ccccc1-n1c(S)nc2ccccc2c1=O [2-Mercapto-3-(2-methoxy-phenyl)-3H-quinazolin-4-one] |  |  |  | 0% |  |
| Cc1cccc(-n2c(S)nc3ccccc3c2=O)c1 [2-Mercapto-3-m-tolyl-3H-quinazolin-4-one] |  |  |  | 0% |  |
| Cc1ccccc1-n1c(S)nc2ccccc2c1=O [2-Mercapto-3-o-tolyl-3H-quinazolin-4-one] |  |  |  | 30% |  |
| CSc1nc2ccccc2c(=O)n1-c1cccc(C)c1 [2-Methylsulfanyl-3-m-tolyl-3H-quinazolin-4-one] |  |  |  | 0% |  |
| CSc1nc2ccccc2c(=O)n1Cc1ccccc1 [3-Benzyl-2-methylsulfanyl-3H-quinazolin-4-one] |  |  |  | 5% |  |
| O=C(O)CSc1nc2ccccc2c(=O)n1-c1ccccc1 [(4-oxo-3-phenyl-3,4-dihydro-quinazolin-2-ylsulfanyl)-acetic acid] |  |  |  | 5% |  |
| C/C1=C/C(=O)O[C@@H]2C[C@@H](CC[C@H](C)/C=C\C=C\CC1)O[C@@](O)([C@@H]1CSC(=O)N1)C2 [Latrunculin-A] |  |  |  |  | effect on actin cables and patches [1]: complete disruption of actin cables and patches; effect on mitochondrial nets [1]: caused mitochondrial nets to collapse and aggregate |
| CN[C@@H]1C[C@H]2O[C@@](C)([C@@H]1OC)n1c3ccccc3c3c4c(c5c6ccccc6n2c5c31)C(=O)NC4 [STS, staurosporine, reference compound] |  |  |  |  | % collapsed nets (mammalian COS cells): 0%; % fragmented (mammalian COS cells): 86%; % loose nets (mammalian COS cells): 0%; % reticular (mammalian COS cells): 14% |
| Cc1ccccc1-n1c(S)nc2ccccc2c1=O [drawing 8] | 8% | 29% | 63% |  |  |
| COc1cc(-n2c(SC)nc3ccccc3c2=O)c(Cl)cc1Cl [drawing 9] | 11% | 7% | 82% |  |  |
| O=C(O)CSc1nc2ccccc2c(=O)n1-c1ccccc1 [drawing 11] | 8% | 5% | 87% |  |  |
| CCSc1nc2ccccc2c(=O)n1-c1cccc(C)c1 [drawing 12] | 51% | 1% | 48% |  |  |
| C=CCSc1nc2ccccc2c(=O)n1-c1cccc(C)c1 [drawing 13] | 8% | 1% | 91% |  |  |
| CSc1nc2ccccc2c(=O)n1-c1cccc(C)c1 [drawing 14] | 6% | 0% | 94% |  |  |
| Cc1cccc(-n2c(S)nc3ccccc3c2=O)c1 [drawing 15] | 0% | 0% | 100% |  |  |
| COc1ccccc1-n1c(S)nc2ccccc2c1=O [drawing 16] | 32% | 0% | 68% |  |  |
| C=CCSc1nc2ccccc2c(=O)n1Cc1ccccc1 [drawing 17] | 69% | 0% | 31% |  |  |
| C=CCSc1nc2ccccc2c(=O)n1-c1ccccc1OC [drawing 18] | 3.2% | 0% | 96.8% |  |  |
| O=c1c2ccccc2nc2n1CCS2 [drawing 19] | 7.3% | 0% | 92.7% |  |  |
| COc1cc(-n2c(SC)nc3cc(Cl)ccc3c2=O)c(Cl)cc1Cl [mfisi-1.1, 7-chloro-3-(2,4-Dichloro-5-methoxy-phenyl)-2-methylsulfanyl-3H-quinazolin-4-one] |  |  |  | 7% |  |
| COc1cc(-n2c(SC)nc3ccccc3c2=O)c(Cl)cc1Cl [mfisi-1.2, 3-(2,4-Dichloro-5-methoxy-phenyl)-2-methylsulfanyl-3H-quinazolin-4-one] |  |  |  | 7% |  |
| CSc1nc2cc(Cl)ccc2c(=O)n1-c1cc(OC(C)C)c(Cl)cc1Cl [mfisi-1.3, 7-chloro-3-(2,4-Dichloro-5-isopropoxy-phenyl)-2-methylsulfanyl-3H-quinazolin-4-one] |  |  |  | 2% |  |
| COc1cc(-n2c(SC)nc3ccc(Cl)cc3c2=O)c(Cl)cc1Cl [mfisi-1.4, 6-chloro-3-(2,4-Dichloro-5-methoxy-phenyl)-2-methylsulfanyl-3H-quinazolin-4-one] |  |  |  | 2% |  |
